# Like-named read-outs stand apart in the source and are kept apart here.
# Key:
# [1] = tested on: Chinese kale (Brassica alboglabra, BRSAG); test: Greenhouse postemergence trial, % visual injury; assay type: in vivo; conditions: 400 g ae/ha alone; 20-22 d
# [2] = tested on: brown mustard (Brassica juncea, BRSJU); test: Greenhouse postemergence trial, % visual injury; assay type: in vivo; conditions: 400 g ae/ha alone; 20-22 d
# [3] = tested on: rutabaga (Brassica napus var. napobrassica, BRSNA); test: Greenhouse postemergence trial, % visual injury; assay type: in vivo; conditions: 400 g ae/ha alone; 20-22 d
# [4] = tested on: grain sorghum (Sorghum vulgare, SORVU); test: Greenhouse postemergence trial, % visual injury; assay type: in vivo
# [5] = tested on: black mustard (Brassica nigra, BRSNI); test: Greenhouse postemergence trial, % visual injury; assay type: in vivo
# [6] = tested on: turnip (Brassica rapa, BRSRR); test: Greenhouse postemergence trial, % visual injury; assay type: in vivo
# [7] = tested on: wild radish (Raphanus raphanistrum, RAPRA); test: Greenhouse postemergence trial, % visual injury; assay type: in vivo
# [8] = tested on: wild mustard (Sinapis arvensis, SINAR); test: Greenhouse postemergence trial, % visual injury; assay type: in vivo
# [9] = tested on: Indian hedge mustard (Sisymbrium orientale, SSYOR); test: Greenhouse postemergence trial, % visual injury; assay type: in vivo
# [10] = tested on: Canadian thistle (CIRAR, Cirsium arvense); test: Greenhouse postemergence trial, % visual injury; conditions: for % visual injury, Obs: CIRAR;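 as to all read-outs here: plants sprayed at second to third true leaf stage, injury scored visually 20-22 d later against solvent-blank sprayed controls, 0 meaning no injury and 100 complete kill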
# [11] = tested on: spring rape (Brassica napus, BRSNN); test: Greenhouse postemergence trial, % visual injury
# [12] = tested on: wild pansy (Viola tricolor, VIOTR); test: Greenhouse postemergence trial, % visual injury
# [13] = tested on: ivyleaf morningglory (Ipomoea hederacea, IPOHE); test: Greenhouse postemergence trial, % visual injury
# winter wheat (TRZAW) [14] = test: Greenhouse postemergence trial, crop phytotoxicity (% visual injury); conditions: for % visual injury, Obs: TRZAW; for % visual injury Obs: crop, 20-22 d
# maize (ZEAMX) [15] = test: as above; conditions: for % visual injury, Obs: ZEAMX
# common rice (ORYSA) [16] = test: as above; conditions: for % visual injury, Obs: ORYSA
# [17] = tested on: pigweed (AMARE, Amaranthus retroflexus); test: Greenhouse postemergence trial, % visual injury; assay type: in vivo
# [18] = tested on: winter rape (BRSNW, Brassica napus); test: Greenhouse postemergence trial, % visual injury; assay type: in vivo; conditions: 20-22 d
# [19] = tested on: common lambsquarters (CHEAL, Chenopodium album L.); test: Greenhouse postemergence trial, % visual injury; assay type: in vivo
# [20] = tested on: large crabgrass (Digitaria sanguinalis, DIGSA); test: Greenhouse postemergence trial, % visual injury; assay type: in vivo; conditions: Digitaria sanguinalis, post-emergence, DIGSA, read-out: % visual injury, Obs
# spring barley (HORVS) [21] = conditions: Hordeum vulgare (spring barley), in vivo
# winter wheat (TRZAW) [22] = conditions: in vivo; for % visual injury Obs: Triticum aestivum (winter wheat)
# maize (ZEAMX) [23] = conditions: maize (Zea mays), in vivo
# common rice (ORYSA) [24] = conditions: in vivo
# [25] = tested on: poinsettia (Euphorbia heterophylla, EPHHL); test: Greenhouse postemergence trial, % visual injury
# [26] = tested on: velvetleaf (Abutilon theophrasti, ABUTH); test: Greenhouse postemergence trial, % visual injury; assay type: in vivo
# [27] = tested on: nutsedge (Cyperus esculentus, CYPES); test: Greenhouse postemergence trial, % visual injury; assay type: in vivo
# [28] = tested on: sunflower (Helianthus annus, HELAN); test: Greenhouse postemergence trial, % visual injury; assay type: in vivo; conditions: dichlorprop-P 400 g ae/ha
# [29] = tested on: common chickweed (Stellaria media, STEME); test: Greenhouse postemergence trial, % visual injury; assay type: in vivo; conditions: for % visual injury, Obs: STEME
# [30] = tested on: kochia (KCHSC, Kochia scoparia); test: Greenhouse postemergence trial, % visual injury; assay type: in vivo
# Procedure: Following the protocol in Example 1, compound 1 and compound 2 were combined with 2,4 D EHE (EC) and applied to kochia (KCHSC, Kochia scoparia) and the phytotoxicity of the herbicidal compositions was measured.
# Following the protocol in Example 1, compound 1 (EC) and Compound 2 (SC) were combined with diflufenzopyr and applied to kochia (Kochia scoparia, KCHSC) and the phytotoxicity of the herbicidal composition was measured.
# spring barley (HORVS) [31] = test: Greenhouse postemergence trial, crop phytotoxicity (% visual injury); conditions: crop, 20-22 d
# [32] = tested on: barnyardgrass (Echinochloa crus-galli, ECHCG); test: Greenhouse postemergence trial, % visual injury; assay type: in vivo; conditions: ECHCG, 280 g ae/ha
# [33] = winter wheat (Triticum aestivum)
# [34] = Cirsium arvense, post-emergence, read-out: % visual injury (Obs)
# [35] = Brassica napus, post-emergence, read-out: % visual injury (Obs)
# [36] = Brassica napus, post-emergence, read-out: % visual injury, Obs
# [37] = Cirsium arvense, post-emergence, read-out: % visual injury Obs
structure (smiles),measurement,setting,value
"O=C(O)COc1ccc(Cl)cc1Cl [2,4-D choline, reference compound]",% visual injury Obs,[1],85%
same,% visual injury Obs,[2],90%
same,% visual injury Obs,[3],93%
COC(=O)c1nc(-c2ccc(Cl)c(OC)c2F)cc(N)c1Cl [Arylex ™],% visual injury (Obs),[4]; Arylex 2.5 g ae/ha,0%
same,% visual injury (Obs),[5]; Arylex 2.5 g ae/ha,0%
same,% visual injury (Obs),[5]; Arylex 5 g ae/ha,0%
same,% visual injury (Obs),[6]; Arylex 2.5 g ae/ha,10%
same,% visual injury (Obs),[6]; Arylex 5 g ae/ha,13%
same,% visual injury (Obs),[7]; Arylex 2.5 g ae/ha,10%
same,% visual injury (Obs),[7]; Arylex 5 g ae/ha,20%
same,% visual injury (Obs),[8]; Arylex 2.5 g ae/ha,65%
same,% visual injury (Obs),[8]; Arylex 5 g ae/ha,78%
same,% visual injury (Obs),[9]; Arylex 2.5 g ae/ha,57%
same,% visual injury (Obs),[9]; Arylex 5 g ae/ha,63%
same,% visual injury (Obs),[10]; Arylex 2.5 g ae/ha,50%
same,% visual injury (Obs),[11]; Arylex 2.5 g ae/ha,20%
same,% visual injury (Obs),[12]; Arylex 2.5 g ae/ha,15%
same,% visual injury (Obs),[12]; Arylex 5 g ae/ha,20%
same,% visual injury (Obs),[13]; Arylex 2.5 g ae/ha,10%
same,% visual injury (Obs),winter wheat (TRZAW) [14]; Arylex 2.5 g ae/ha,0%
same,% visual injury (Obs),maize (ZEAMX) [15]; Arylex 2.5 g ae/ha,0%
same,% visual injury (Obs),common rice (ORYSA) [16]; Arylex 2.5 g ae/ha,0%
"COc1c(Cl)ccc(Cl)c1C(=O)O [Dicamba-DMA, dicamba-dimethylammonium, reference compound]",pest or weed control at 140 g/ha,"[17]; Amaranthus retroflexus, post-emergence, 140 g ae/ha alone, 20-22 d, read-out: % visual injury Obs",67%
same,% visual injury Obs,[18]; 140 g ae/ha alone,40%
same,"% visual injury, Obs","[19]; CHEAL, 140 g ae/ha",85%
same,pest or weed control at 140 g/ha,[20]; 140 g ae/ha,0%
same,% visual injury Obs,spring barley (HORVS) [21],0%
same,% visual injury Obs,winter wheat (TRZAW) [22],0%
same,% visual injury (Obs),winter wheat (TRZAW) [22]; [33],0%
same,"% visual injury, Obs",winter wheat (TRZAW) [22]; [33],0%
same,% visual injury (Obs),maize (ZEAMX) [23],0%
same,"% visual injury, Obs",maize (ZEAMX) [23],0%
same,% visual injury (Obs),common rice (ORYSA) [24],0%
same,"% visual injury, Obs",common rice (ORYSA) [24],5%
same,pest or weed control at 150 g/ha,[10]; [34],70%
same,plant injury at 150 g/ha,[11]; [35],40%
same,plant injury at 140 g/ha,[11]; [36],50%
same,pest or weed control at 140 g/ha,"[25]; Euphorbia heterophylla, post-emergence, read-out: % visual injury, Obs, EPHHL, 140 g ae/ha",20%
same,% visual injury (Obs),[25]; dicamba-DMA 150 g ae/ha,50%
same,% visual injury (Obs),[12]; dicamba-DMA 150 g ae/ha,20%
same,% visual injury (Obs),[13]; dicamba-DMA 150 g ae/ha,70%
"CC(Oc1ccc(Cl)cc1Cl)C(=O)O (stereo not shown) [Dichlorprop-P, dichlorprop-P, reference compound]",pest or weed control at 280 g/ha,"[17]; Amaranthus retroflexus, post-emergence, 280 g ae/ha alone, 20-22 d, read-out: % visual injury Obs",40%
same,% visual injury Obs,[18]; 280 g ae/ha alone,83%
same,% visual injury (Obs),[26]; dichlorprop-P 400 g ae/ha,60%
same,% visual injury (Obs),[27]; dichlorprop-P 400 g ae/ha,0%
same,% visual injury (Obs),[28],85%
same,% visual injury (Obs),[29]; dichlorprop-P 400 g ae/ha,20%
same,% visual injury Obs,spring barley (HORVS) [21],0%
same,% visual injury Obs,winter wheat (TRZAW) [22],0%
same,% visual injury (Obs),winter wheat (TRZAW) [22]; [33],0%
same,% visual injury (Obs),common rice (ORYSA) [24],0%
same,pest or weed control at 400 g/ha,[10]; [34],70%
same,pest or weed control at 280 g/ha,[10]; [37],75%
same,plant injury at 400 g/ha,[11]; [35],80%
same,% visual injury (Obs),[25]; dichlorprop-P 400 g ae/ha,60%
"Cc1cc(Cl)ccc1OC(C)C(=O)O (stereo not shown) [Mecoprop-P, mecoprop-P]",pest or weed control at 400 g/ha,"[17]; Amaranthus retroflexus, post-emergence, 400 g ae/ha alone, 20-22 d, read-out: % visual injury Obs",58%
same,% visual injury Obs,[18]; 400 g ae/ha alone,88%
same,pest or weed control at 400 g/ha,"[30]; Bassia scoparia, post-emergence, KCHSC, 400 g ae/ha, read-out: % visual injury, Obs",10%
same,pest or weed control at 400 g/ha,"[26]; Abutilon theophrasti, post-emergence, ABUTH, 400 g ae/ha, read-out: % visual injury, Obs",30%
same,"% visual injury, Obs","[4]; SORVU, 400 g ae/ha",0%
same,"% visual injury, Obs",[29]; 400 g ae/ha,0%
same,"% visual injury, Obs",[10]; 400 g ae/ha,10%
same,plant injury at 400 g/ha,[11]; [36],30%
same,pest or weed control at 400 g/ha,"[25]; Euphorbia heterophylla, post-emergence, read-out: % visual injury, Obs, EPHHL, 400 g ae/ha",30%
same,pest or weed control at 400 g/ha,"[13]; Ipomoea, post-emergence, read-out: % visual injury, Obs, IPOHE, 400 g ae/ha",30%
same,% visual injury Obs,spring barley (HORVS) [31]; 400 g ae/ha alone,0%
same,"% visual injury, Obs",winter wheat (TRZAW) [14]; 400 g ae/ha,0%
same,% visual injury Obs,winter wheat (TRZAW) [14]; 400 g ae/ha alone,0%
same,"% visual injury, Obs",maize (ZEAMX) [15]; 400 g ae/ha,0%
same,"% visual injury, Obs",common rice (ORYSA) [16]; 400 g ae/ha,0%
O=C(O)c1nc(Cl)ccc1Cl [clopyralid],"% visual injury, Obs","[17]; AMARE, 100 g ae/ha",28%
same,pest or weed control at 100 g/ha,"[17]; Amaranthus retroflexus, post-emergence, 100 g ae/ha alone, 20-22 d, read-out: % visual injury Obs",3%
same,% visual injury Obs,[18]; 100 g ae/ha alone,0%
same,pest or weed control at 100 g/ha,"[19]; Chenopodium album, post-emergence, 100 g ae/ha alone, 20-22 d, read-out: % visual injury Obs",0%
same,% visual injury (Obs),[19]; clopyralid 120 g ae/ha,10%
same,% visual injury (Obs),[30]; clopyralid 120 g ae/ha,10%
same,% visual injury (Obs),[29]; clopyralid 120 g ae/ha,0%
same,pest or weed control at 100 g/ha,[20]; 100 g ae/ha,0%
same,pest or weed control at 100 g/ha,[10]; [37],85%
same,plant injury at 100 g/ha,[11]; [36],43%
same,pest or weed control at 100 g/ha,"[25]; Euphorbia heterophylla, post-emergence, read-out: % visual injury, Obs, EPHHL, 100 g ae/ha",5%
same,pest or weed control at 100 g/ha,"[13]; Ipomoea, post-emergence, read-out: % visual injury, Obs, IPOHE, 100 g ae/ha",35%
same,% visual injury (Obs),[13]; clopyralid 120 g ae/ha,30%
same,% visual injury Obs,spring barley (HORVS) [31]; 100 g ae/ha alone,5%
same,"% visual injury, Obs",winter wheat (TRZAW) [14]; 100 g ae/ha,0%
same,% visual injury (Obs),winter wheat (TRZAW) [14]; clopyralid 120 g ae/ha,0%
same,% visual injury Obs,winter wheat (TRZAW) [14]; 100 g ae/ha alone,3%
same,"% visual injury, Obs",maize (ZEAMX) [15]; 100 g ae/ha,0%
same,% visual injury (Obs),maize (ZEAMX) [15]; clopyralid 120 g ae/ha,0%
same,"% visual injury, Obs",common rice (ORYSA) [16]; 100 g ae/ha,0%
same,% visual injury (Obs),common rice (ORYSA) [16]; clopyralid 120 g ae/ha,0%
"CCCCOCCOC(=O)COc1nc(Cl)c(Cl)cc1Cl [triclopyr-butotyl, reference compound]",pest or weed control at 280 g/ha,"[30]; Bassia scoparia, post-emergence, KCHSC, 280 g ae/ha, read-out: % visual injury, Obs",50%
same,pest or weed control at 280 g/ha,"[26]; Abutilon theophrasti, post-emergence, ABUTH, 280 g ae/ha, read-out: % visual injury, Obs",20%
same,"% visual injury, Obs","[27]; CYPES, 280 g ae/ha",10%
same,"% visual injury, Obs",[29]; 280 g ae/ha,20%
same,pest or weed control at 280 g/ha,[20]; 280 g ae/ha,0%
same,"% visual injury, Obs",[32],0%
same,"% visual injury, Obs",[10]; 280 g ae/ha,85%
same,plant injury at 280 g/ha,[11]; [36],80%
same,"% visual injury, Obs","[12]; VIOTR, 280 g ae/ha",65%
same,"% visual injury, Obs",winter wheat (TRZAW) [14]; 280 g ae/ha,15%
same,"% visual injury, Obs",maize (ZEAMX) [15]; 280 g ae/ha,10%
same,"% visual injury, Obs",common rice (ORYSA) [16]; 280 g ae/ha,0%
